Test results from patent US20230345984A1, “SWEETENERS” (Sweegen, Inc, priority 2022, published 2023).
Non-standard residues stand in square brackets, D forms with d. No end group written: not given here. pGlu = O=C1CC[C@@H](C(=O)O)N1

Legend:
[1] = Sweetness grading of sweetener solutions on a scale from 0 to 15 over 7 days; conditions: for Sweetness score Day 1 / Sweetness score Day 4 / Sweetness score Day 5 / Sweetness score Day 6 / Sweetness score Day 7: scale of 0-15
Protocol: Formulations comprising brazzein and rebaudiosides were developed and their relative sweetness was assessed. Sweetness was graded on a scale from 0 (no sweetness) to 15 (maximal sweetness) and assessed for the different formulations over a period of 7 days.

[2] = cited from earlier work
[3] = Sensory grading (0 to 9) of flavor and sweetness of chocolate formulations with versus without brazzein; conditions: chocolate with Reb D, Reb E, Reb I, Reb M, with vs without brazzein; FIG. 2B
Protocol: Formulations comprising brazzein and chocolate were developed, and their relative flavor and sweetness were assessed. Sweetness and flavor were graded across different factors on a scale from 0 (minimum) to 9 (maximal) and assessed for the different formulations. Different factors tested include sweet taste, bitter taste, chocolate flavor, dairy flavor, sweet aromatics, and green/vegetative. The formulations tested comprise brazzein, Reb D, Reb E, Reb I, Reb M and chocolate compared to a control (chocolate comprising Reb D, Reb E, Reb I, and Reb M).
The sweetness is enhanced by having the early onset and slow fade more like sugar than chocolate that is only sweetened with Reb D, Reb E, Reb I, and Reb M. Therefore, including brazzein in food compositions, such as chocolate, enhance the flavor and sweetness of the composition.

[4] = cited from earlier work; remark: listed apart in the source

## C=C1C[C@@]23CC[C@H]4[C@@](C)(CCC[C@@]4(C)C(=O)O[C@@H]4O[C@H](CO)[C@@H](O)[C@H](O[C@@H]5O[C@H](CO)[C@@H](O)[C@H](O)[C@H]5O)[C@H]4O[C@@H]4O[C@H](CO)[C@@H](O)[C@H](O)[C@H]4O)[C@@H]2CC[C@]1(O[C@@H]1O[C@H](CO)[C@@H](O)[C@H](O[C@@H]2O[C@H](CO)[C@@H](O)[C@H](O)[C@H]2O)[C@H]1O[C@@H]1O[C@H](CO)[C@@H](O)[C@H](O)[C@H]1O)C3 [Reb M at SE of 5% sucrose, Rebaudioside M]
[1]
  Sweetness score Day 1: 5
  Sweetness score Day 4: 5
  Sweetness score Day 5: 5
  Sweetness score Day 6: 5
  Sweetness score Day 7: 5

## OC[C@H]1O[C@@](CO)(O[C@H]2O[C@H](CO)[C@@H](O)[C@H](O)[C@H]2O)[C@@H](O)[C@@H]1O [Sucrose (5%), Sucrose]
[1]
  Sweetness score Day 1: 5
  Sweetness score Day 4: 5
  Sweetness score Day 5: 5
  Sweetness score Day 6: 5
  Sweetness score Day 7: 5

## PyrE-bra: major form brazzein, pyroglutamic acid at N-terminus, 54 amino acid residues ([pGlu]DKCKKVYENYPVSKCQLANQCNYDCKLDKHARSGECFYDEKRNLQCICDYCEY; cysteine pairing not given here; UniProt P56552 1-54, looked up)
[2]; vs 10% sucrose solution
  Times sweeter than 10% sucrose solution: 500 times

## brazzein: natural peptide sweetener first isolated from the fruit of Pentadiplandra brazzeana Baillon (SEQ ID NO: 12) (QDKCKKVYENYPVSKCQLANQCNYDCKLDKHARSGECFYDEKRNLQCICDYCEY; Pentadiplandra brazzeana Baillon)
[1]; 25 ppm brazzein added to a 5% sucrose solution
  Effect on perceived sweetness profile of the solution: slightly enhanced
[1]; 25 ppm brazzein in 5% sucrose solution
  Sweetness over the 7-day period: remained stable
[1]; brazzein added to Reb M solution with SE of 5% sucrose, compared to sucrose plus brazzein
  Effect on sweetness of a Reb M solution: synergistically enhanced
[3]
  Astringency: decreased
  Bitter taste at 120 seconds: decreased
[2]; weight basis
  Times sweeter than sucrose on a weight basis: 500-2000 times
[4]; 80° C., 4.5 hours, pH range of 2.5-8.0
  Sweet taste after incubation at 80° C. for 4.5 hours: sweet taste remains
[4]; 98° C., 2 hours
  Sweet taste after incubation at 98° C. for 2 hours: sweet taste remains
